Experimental data from US20200087625A1, “METHODS FOR ISOLATING, EXPANDING AND ADMINISTERING CANCER SPECIFIC CD8+ T CELLS” (priority 2017, published 2020).

Test system: 4T1-GLF cells
Experiment: In vivo imaging (IVIS) of lung tumor signals, 4T1-GLF
Set-up: species or system BALB/c mice
Conditions: 200 μg i.p. day -1; early phase 3 h and 6 h, late phase days 7, 10, 14
Description: FIGS. 25A-25F. Innate immune cells, NK cells and dendritic cells are activated following 1V270 therapy and contribute to anti-metastatic effects (A-C) Systemic administration of 1V270 activates dendritic cells and increases CD8^+ cell recruitment in the lung draini lymph node. (A) BALB/c mice (n=S/group) were treated with 1V270 on day −1 and then tumor cells were i.v. administered on day 0. Seven days later, mediastinal lymph node (mLN) cells were stained for dendritic cells (DC; CD45^+CD11c^+MHC classll^+). (B) DCs were further stained for CD80 and CD86. […] Tumor signals were quantified by IVIS. […] On the next day, lung cells were stained for NK markers (CD45^+[…] NKp46^+CD49^+) and analyzed by flow cytometry. […] Tumor signals were analyzed as described above. […]
GFP and luciferase (GLF)-expressing tumor cells (2×10^4 of 4T1-GLF, 5×10^5 of B16-GLF, and […] of LLC-GLF) were i.v. injected into BALB/c mice for 4T1 models, BG-albino or wild-type C57BU6 for B16 melanoma or LLC models). […] Image data were acquired by 1 Ss exposure using the IVIS Spectrum and analyzed using the Living Image software, version 4.5.2 (Perkin Elmer, Waltham, Mass.). We confirmed that the tumor signals in the lungs at day 10 correlated with the number of lung metastasis determined on day 21, as well as the overall survival (Supplemental figures 10). […]

**Q.** `CCCCCCCCC=CCCCCCCCC(=O)OCC(COP(=O)(O)OCCNC(=O)c1ccc(Cn2c(=O)[nH]c3c(N)nc(OCCOC)nc32)cc1)OC(=O)CCCCCCCC=CCCCCCCCC` (stereo not shown) [1V270] was tested. Which “lung tumor signals (IVIS)” value did it give?
**A.** significantly suppressed the tumor signals
